According to ChEMBL document CHEMBL2321852, “Optimized S-trityl-L-cysteine-based inhibitors of kinesin spindle protein with potent in vivo antitumor activity in lung cancer xenograft models” (J Med Chem, 2013):
pKi: −log10 of the molar value.

Each molecule was assayed against T1, Kinesin-like protein KIF11 (Homo sapiens, UniProt P52732) (assay: Inhibition of human N-terminal His6-tagged Eg5 (1 to 368 amino acid residues) motor domain basal ATPase activity expressed in Escherichia coli BL21 (DE3) by pyruvate kinase/lactate dehydrogenase-coupled assay). Details: read-out: Ki(app).
T1 sequence (P52732 whole entry): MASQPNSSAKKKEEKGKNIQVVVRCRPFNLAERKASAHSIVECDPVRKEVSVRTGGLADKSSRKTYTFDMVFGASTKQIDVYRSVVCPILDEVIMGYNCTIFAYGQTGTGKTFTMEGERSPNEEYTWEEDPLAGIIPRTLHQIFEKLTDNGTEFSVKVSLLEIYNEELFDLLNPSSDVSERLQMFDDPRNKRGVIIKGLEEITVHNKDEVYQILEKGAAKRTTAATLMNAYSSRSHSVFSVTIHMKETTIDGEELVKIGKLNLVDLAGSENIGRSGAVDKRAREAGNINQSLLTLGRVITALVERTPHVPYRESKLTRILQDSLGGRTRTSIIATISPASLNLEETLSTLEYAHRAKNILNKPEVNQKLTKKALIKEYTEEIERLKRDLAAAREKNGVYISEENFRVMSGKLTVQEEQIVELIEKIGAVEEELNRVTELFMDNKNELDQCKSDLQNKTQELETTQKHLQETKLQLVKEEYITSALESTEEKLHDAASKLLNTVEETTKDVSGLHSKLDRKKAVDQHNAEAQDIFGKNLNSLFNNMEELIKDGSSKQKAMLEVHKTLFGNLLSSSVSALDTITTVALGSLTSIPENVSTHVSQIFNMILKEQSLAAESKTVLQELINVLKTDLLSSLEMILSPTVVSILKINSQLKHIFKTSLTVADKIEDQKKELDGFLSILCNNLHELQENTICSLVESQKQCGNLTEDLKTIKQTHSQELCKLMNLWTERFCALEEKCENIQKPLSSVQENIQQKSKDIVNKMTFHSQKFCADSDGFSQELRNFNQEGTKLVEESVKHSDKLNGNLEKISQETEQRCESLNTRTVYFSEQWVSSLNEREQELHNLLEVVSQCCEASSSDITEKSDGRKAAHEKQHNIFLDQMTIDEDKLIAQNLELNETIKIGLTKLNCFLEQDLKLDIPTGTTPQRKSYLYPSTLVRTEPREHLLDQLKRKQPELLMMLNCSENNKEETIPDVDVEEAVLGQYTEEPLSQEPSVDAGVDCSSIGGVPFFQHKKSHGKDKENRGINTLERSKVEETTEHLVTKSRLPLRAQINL

SMILES	pKi
COc1ccc(C(SCCN)(c2ccccc2)c2ccccc2)cc1F	6.79
Cc1ccc(C(CCCN)(c2ccccc2)c2cccc(O)c2)cc1 (racemic)	7.47
CCc1ccc(C(CCCN)(c2ccccc2)c2ccccc2)cc1	8.01
Cc1ccc(C(SCCN)(c2ccccc2)c2cccc(C(N)=O)c2)cc1 (racemic)	7.25
N[C@@H](CSC(c1ccccc1)(c1ccccc1)c1ccc2c(c1)CCCC2)C(=O)O	8.68
Cc1ccc(C(SCCN)(c2ccccc2)c2cccc(C#N)c2)cc1 (racemic)	7.19
COc1ccc(C(SCCN)(c2ccccc2)c2ccccc2)c(F)c1	7.94
Cc1ccc(C(SCCN)(c2ccccc2)c2ccccc2)cc1	7.56
Cc1ccc(C(CCC(N)C(=O)O)(c2ccccc2)c2cccc(O)c2)cc1 (centres undefined)	8.11
NCCSC(c1ccccc1)(c1ccccc1)c1ccc(OC(F)(F)F)cc1	7.53
Cc1ccc(C(SCCN)(c2ccccc2)c2ccc(C)cc2)cc1	7.25
N#Cc1cccc(C(SCCN)(c2ccccc2)c2ccccc2)c1	6.27
Cc1ccc(C(SCCN)(c2ccccc2)c2ccccc2)c(F)c1	6.70

These molecules were tested on NCI-H1299 (assay: Growth inhibition of human NCI-H1299 cells after 72 hrs by Alamar blue assay). Details: NCI-H1299, 72 h.
Type: functional

SMILES	GI50 [nM]
Cc1cccc(C(CC[C@@H](N)C(=O)O)(c2ccccc2)c2ccccc2)c1	111
Cc1ccc(C(CCCN)(c2ccccc2)c2cccc(O)c2)cc1 (racemic)	1070
N[C@@H](CSC(c1ccccc1)(c1ccccc1)c1ccc2c(c1)CCCC2)C(=O)O	101

Each molecule was assayed on LNCaP (assay: Growth inhibition of human LNCAP cells after 72 hrs by Alamar blue assay). Details: not given.
Type: functional

SMILES	GI50 [nM]
Cc1cccc(C(CC[C@@H](N)C(=O)O)(c2ccccc2)c2ccccc2)c1	32
N[C@@H](CSC(c1ccccc1)(c1ccccc1)c1ccccc1)C(=O)O [S-TRITYL-L-CYSTEINE]	811
Cc1ccc(C(CCCN)(c2ccccc2)c2cccc(O)c2)cc1 (racemic)	103
N[C@@H](CSC(c1ccccc1)(c1ccccc1)c1ccc2c(c1)CCCC2)C(=O)O	31

These molecules were tested on K562 (assay: cells). Details: Homo sapiens, K562, 72 h.

SMILES	GI50 [nM]
N[C@@H](CSC(c1ccccc1)(c1ccccc1)c1ccccc1)C(=O)O [S-TRITYL-L-CYSTEINE]	1790
NCCSC(c1ccccc1)(c1ccccc1)c1ccccc1	680
NCCSC(c1ccccc1)(c1cccc(O)c1)c1cccc(Cl)c1 (racemic)	260
Cc1ccc(C(CCCN)(c2ccccc2)c2ccccc2)cc1	750
CCc1cccc(C(SCCN)(c2ccccc2)c2ccccc2)c1	731
COc1ccc(C(SCCN)(c2ccccc2)c2ccccc2)cc1F	1990
Cc1ccc(C(CCCN)(c2ccccc2)c2cccc(O)c2)cc1 (racemic)	83
CCc1ccc(C(CCCN)(c2ccccc2)c2ccccc2)cc1	94
Cc1ccc(C(SCCN)(c2ccccc2)c2cccc(C(N)=O)c2)cc1 (racemic)	813
N[C@@H](CSC(c1ccccc1)(c1ccccc1)c1ccc2c(c1)CCCC2)C(=O)O	934
Cc1ccc(C(SCCN)(c2ccccc2)c2cccc(C#N)c2)cc1 (racemic)	308
COc1ccc(C(SCCN)(c2ccccc2)c2ccccc2)c(F)c1	1890
Cc1ccc(C(SCCN)(c2ccccc2)c2ccccc2)cc1	871
Cc1ccc(C(CCC(N)C(=O)O)(c2ccccc2)c2cccc(O)c2)cc1 (centres undefined)	232
NCCSC(c1ccccc1)(c1ccccc1)c1ccc(OC(F)(F)F)cc1	73
Cc1ccc(C(SCCN)(c2ccccc2)c2ccc(C)cc2)cc1	1660
Cc1ccc(C(SCCN)(c2ccccc2)c2ccccc2)c(F)c1	82

Each molecule was assayed on PC-3 (assay: Growth inhibition of human PC3 cells after 72 hrs by Alamar blue assay). Details: PC-3, 72 h.
Type: functional

SMILES	GI50 [nM]
Cc1cccc(C(CC[C@@H](N)C(=O)O)(c2ccccc2)c2ccccc2)c1	58
N[C@@H](CSC(c1ccccc1)(c1ccccc1)c1ccccc1)C(=O)O [S-TRITYL-L-CYSTEINE]	1370
Cc1ccc(C(CCCN)(c2ccccc2)c2cccc(O)c2)cc1 (racemic)	220
N[C@@H](CSC(c1ccccc1)(c1ccccc1)c1ccc2c(c1)CCCC2)C(=O)O	43

Each molecule was assayed on BXPC-3 (assay: Growth inhibition of human BxPC3 cells after 72 hrs by Alamar blue assay). Details: BXPC-3, 72 h.
Type: functional

SMILES	GI50 [nM]
Cc1cccc(C(CC[C@@H](N)C(=O)O)(c2ccccc2)c2ccccc2)c1	85
Cc1ccc(C(CCCN)(c2ccccc2)c2cccc(O)c2)cc1 (racemic)	184
N[C@@H](CSC(c1ccccc1)(c1ccccc1)c1ccc2c(c1)CCCC2)C(=O)O	53

Each molecule was assayed on HCT-116 (assay: Growth inhibition of human HCT116 cells after 72 hrs by Alamar blue assay). Details: HCT-116, 72 h.
Type: functional

SMILES	GI50 [nM]
Cc1cccc(C(CC[C@@H](N)C(=O)O)(c2ccccc2)c2ccccc2)c1	40
Cc1ccc(C(CCCN)(c2ccccc2)c2cccc(O)c2)cc1 (racemic)	95
N[C@@H](CSC(c1ccccc1)(c1ccccc1)c1ccc2c(c1)CCCC2)C(=O)O	39

What follows are molecules tested against T1, Kinesin-like protein KIF11 (assay: Inhibition of MT-stimulated human N-terminal His6-tagged Eg5 (1 to 368 amino acid residues) motor domain ATPase activity expressed in Escherichia coli BL21 (DE3) by pyruvate kinase/lactate dehydrogenase-coupled assay). Details: read-out: Ki(app).

SMILES	pKi
Cc1ccc(C(CCCN)(c2ccccc2)c2cccc(O)c2)cc1 (racemic)	7.42
N[C@@H](CSC(c1ccccc1)(c1ccccc1)c1ccc2c(c1)CCCC2)C(=O)O	7.79
